In patent US7705049B2, “Methods for treating non-melanoma cancers with PABA” (New York University, priority 2004, dated 2010):

How the values were obtained:
[1] = tested on: SKOV-3 ovarian carcinoma cells; assay: MTT proliferation assay, SKOV-3 cells; format: cell-based; details: topotecan 0.1 uM alone, compared to untreated controls
Method: Similarly, SKOV-3 ovarian carcinoma cells were incubated with or without PABA at 0.1 mg/ml in DMEM for 3 days and subsequently exposed to topotecan at concentrations of 0, 0.1, 0.5 and 2.0 μM, and ^90Y-huBrE-3 at concentrations of 0, 1.0, 2.0, and 4.0 μCi, and evaluated using an MTT assay after 72 hrs.

[2] = tested on: 4T1 breast carcinoma cells; assay: Subcutaneous 4T1 breast tumor growth and lung metastasis in mice; format: in vivo
Method: Sub-confluent cultures of 4T1 breast carcinoma cells were harvested, washed and resuspended in PBS. Female nude mice or Balb/c strain mice were injected subcutaneously with approximately 1×10^6 tumor cells. Subcutaneous tumors were allowed to grow for 7 days, at which time the mice were treated daily by intraperitoneal injections of the following: • PABA alone (500 μg/mouse) • Radiation alone (9.0 Gy) • PABA and radiation • Docetaxel (8.0 mg/kg 1 time/week, intraperitoneal administration) • PABA and docetaxel (daily PABA and intraperitoneal administration of 8.0 mg/kg docetaxel 1 time/week) Untreated mice were used as a control. Tumor growth was gauged by weekly caliper measurements. After 28 days, the mice were sacrificed and tumor volumes were calculated by standard methods using the formula […], where V=volume, L=length and W=width.

[3] = tested on: reactive oxygen species (ROS); details: 100 nM, 24 hours exposure; cited from earlier work
[4] = tested on: MCF7 breast carcinoma cells; assay: MTT proliferation assay, MCF7 cells; format: cell-based; details: Homo sapiens, PABA 0.1 mg/ml 3 days, 5-FU 1 μM, ^90Y-huBrE-3 1 μCi, MTT after 72 hours
Method: Pharmaceutical grade ^90Y was buffered in 0.05M acetate and incubated with MX-DTPA-huBrE-3 and 5 mM EDTA for 1 hr, followed by purification on a Bio-Gel P6 column eluted with 1% human serum albumin to generate radiolabeled ^90Y-huBrE-3 antibody. MCF7 breast carcinoma cells were incubated with and without PABA (0.1 mg/ml) in DMEM media for 3 days, and then exposed to 5-fluorouracil (5-FU) in concentrations of 0, 0.05, 0.1, 1.0 and 5.0 μM, and concentrations of ^90Y-huBrE-3 in concentrations of 0, 1.0, 2.0, and 4 μCi. Effects on proliferation were monitored after 72 hours using a commercially available MTT assay.

[5] = tested on: hormone receptor-positive tumors; details: 3-year; cited from earlier work
[6] = tested on: stage II or stage III breast cancer; details: cited from earlier work
[7] = tested on: Lewis Lung carcinoma cells; assay: Chick embryo CAM tumor growth, Lewis Lung carcinoma; format: in vivo, chick embryos; details: PABA 100 ug/ml, TAXOL 0.01 μM, 7 days
Method: Lewis Lung carcinoma cells and murine 4T1 breast carcinoma cells (available from American Type Culture Collection, Rockville, MD-No. CRL-2539), were cultured in growth medium in the presence or absence of PABA (100 ug/ml) for at least 7 days. The cells were harvested, washed and resuspended in sterile PBS, followed by implantation on the chorioallantoic membranes (CAM) of 10-day old chick embryos. Embryos were allowed to incubate for 24 hours. The embryos were then treated with either a single fraction dose of ionizing radiation (5.0 Gy) or TAXOL® (0.01 μM) and allowed to incubate for 7 days.

MCF-7 xenograft = details: subtherapeutic doses; cited from earlier work
β1 integrin subunit = assay: Western blot, β1 integrin; format: cell-based; details: G361 melanoma cells; 2 weeks with PABA
Method: (§1) Western blot analysis was performed to confirm the altered expression of CDC25A, c-Myc and BRCA-2 at the protein level. G361 melanoma cells were cultured for 2 weeks in the presence or absence of PABA. The cells were harvested and lysed in 1.0% Triton-X-100 lysis buffer. Equal amounts of total cell lysates (50 μg/lane) were separated by 10% SDS PAGE and the proteins were transferred to nitrocellulose membranes. The membranes were probed with monoclonal antibodies P4C10 (anti-β1 integrin), 3303 (anti-BRCA-2) and Ab-3 (anti-CDC25A) or secondary antibody only. […] BRCA-2 expression was decreased in cells treated with PABA compared to cells grown in the absence of PABA. […] In similar studies, c-Myc expression in 4T1 breast carcinoma cells and G361 melanoma cells was examined by Western blot. The nitrocellulose membranes were probed with anti-c-Myc monoclonal antibody 9402 (available from Cell Signaling Technology, Beverly, Mass.) and anti-actin monoclonal antibody. […] No change in actin levels was observed.

CDC25A = assay: Western blot, CDC25A; format: cell-based; details: G361 melanoma cells; 2 weeks with PABA
Method: as §1

melanogenesis = details: in vitro and in vivo, alone or in combination with chemotherapy or radiation therapy; cited from earlier work
c-Myc = assay: Western blot, c-Myc; format: cell-based
Method: as §1

G361 melanoma cells = assay: Cell cycle analysis by flow cytometry, G361; format: cell-based; details: PABA 100 μg/ml 2 weeks, untreated 12%
Method: (§2) G361 melanoma cells and 4T1 breast cancer cells were cultured in the presence or absence of PABA (100 μg/ml) for 2 weeks. The tumor cells were synchronized by serum starvation and cultured for 2 hours in 10% serum-containing medium. The cells were harvested, washed, fixed and stained with propidium iodide. Cell cycle analysis was performed by flow cytometry. The relative levels of untreated G361 cells (12%) and 4T1 cells (10%) in S-phase were low compared. FIG. 9. In contrast, 72% of PABA-treated G361 cells and 40% of PABA-treated 4T1 cells were in S-phase.

[8] = tested on: cell cycle control genes in B16F10 and G361 melanoma cells; assay: AFFYMATRIX cDNA array analysis of tumor cells; format: cell-based, human and mouse; details: PABA 100 μg/ml
Method: (§3) An AFFYMATRIX™ based cDNA array analysis was performed on tumor cells cultured in the presence or absence of PABA (100 μg/ml). A number of genes within the tumor cells were differentially expressed following PABA treatment. Experiments were conducted on genes that were consistently altered in both human and mouse tumor cells. […] To confirm these findings, the expression of CDC25A was analyzed. 4T1 breast carcinoma cells and B16F10 melanoma cells were incubated in the presence or absence of PABA. After 7 days, the RNA was isolated. The relative levels of CDC25A mRNA were examined by RT-PCR or real time PCR. FIG. 8.

[9] = tested on: Lewis Lung carcinoma cells; details: cited from earlier work
actin = assay: Western blot, actin; format: cell-based
Method: as §1
P21^CIP1 is a cell cycle dependent kinase inhibitor, which has a role in regulating the sensitivity of breast cancer cells to chemotherapeutic agents such as TAXOL®. 4T1 breast cancer cells were incubated in the presence or absence of PABA (100 μg/ml) for 7 days. The cells were washed and cell lysates were prepared. Levels of P21^CIP1 were analyzed by Western blot. […]

[10] = tested on: murine 4T1 breast carcinoma cells; assay: Chick embryo CAM tumor growth, 4T1 breast carcinoma; format: in vivo, chick embryos; details: 4T1 on CAM; PABA 100 ug/ml; 7 days
Method: Lewis Lung carcinoma cells and murine 4T1 breast carcinoma cells (available from American Type Culture Collection, Rockville, MD-No. CRL-2539), were cultured in growth medium in the presence or absence of PABA (100 ug/ml) for at least 7 days. The cells were harvested, washed and resuspended in sterile PBS, followed by implantation on the chorioallantoic membranes (CAM) of 10-day old chick embryos. Embryos were allowed to incubate for 24 hours. The embryos were then treated with either a single fraction dose of ionizing radiation (5.0 Gy) or TAXOL® (0.01 μM) and allowed to incubate for 7 days. Tumor growth was assessed by measuring the wet weights of resected tumors (5-10 tumors per condition).

[11] = cited from earlier work
4T1 breast cancer cells = assay: Cell cycle analysis by flow cytometry, 4T1; format: cell-based; details: PABA 100 μg/ml 2 weeks, untreated 10%
Method: as §2

BRCA-2 = assay: Western blot, BRCA-2; format: cell-based; details: G361 melanoma cells; 2 weeks with PABA
Method: as §1

[12] = tested on: H460 non-small cell lung cancer cells; assay: Reactive oxygen species by FACS; format: cell-based; details: PABA 100 μg/ml
Method: H460 non-small cell lung cancer cells were grown in the presence or absence of PABA (100 μg/ml) in RPMI-1640 media containing 10% fetal calves serum, 1% penn/strep and 1% NaPyruvate. After 24 hours, a portion of the cells were exposed to 0.01 bortezomib (10 nM) for an additional 24 hours. […] The cells were monitored for ROS by the addition of dihydrothidine at a concentration of 5 μM for 15 minutes followed by fixation in ethanol and analysis by FACS. […] FIG. 10. Cells treated with PABA and bortezomib had about a 2 fold increase in ROS compared to cells treated with bortezomib alone.

P21^CIP1 = assay: Western blot, P21^CIP1; format: cell-based; details: 4T1 breast cancer cells; PABA 100 μg/ml 7 days
Method: P21^CIP1 is a cell cycle dependent kinase inhibitor, which has a role in regulating the sensitivity of breast cancer cells to chemotherapeutic agents such as TAXOL®. 4T1 breast cancer cells were incubated in the presence or absence of PABA (100 μg/ml) for 7 days. The cells were washed and cell lysates were prepared. Levels of P21^CIP1 were analyzed by Western blot. Equal amounts (50 μg/lane) were separated by SDS PAGE and transferred to nitrocellulose membranes. The membranes were probed with anti-P21^CIP1 or anti-actin monoclonal antibodies.

CDC25A mRNA = CDC25A mRNA by RT-PCR; format: cell-based; details: 7 days
Method: as §3

## CC[C@@]1(O)C(=O)OCc2c1cc1n(c2=O)Cc2cc3c(CN(C)C)c(O)ccc3nc2-1 [topotecan]
[1]
  inhibition of proliferation: minimally

## CC(=O)O[C@@]12CO[C@@H]1C[C@H](O)[C@@]1(C)C(=O)[C@H](O)C3=C(C)[C@@H](OC(=O)[C@H](O)[C@@H](NC(=O)OC(C)(C)C)c4ccccc4)C[C@@](O)([C@@H](OC(=O)c4ccccc4)[C@H]21)C3(C)C [docetaxel, reference compound]
[2]; docetaxel 8.0 mg/kg 1 time/week i.p., PABA 500 μg/mouse daily, 28 days (FIG. 3)
  reduction of tumor growth: ~45%

## CC(C)C[C@H](NC(=O)[C@H](Cc1ccccc1)NC(=O)c1cnccn1)B(O)O [bortezomib]
[3]
  induction of reactive oxygen species (ROS): actively induce reactive oxygen species (ROS)

## O=c1[nH]cc(F)c(=O)[nH]1 [5-FU, 5-fluorouracil]
[4]
  inhibition at 1 µM: ~25%

## CC/C(=C(\c1ccccc1)c1ccc(OCCN(C)C)cc1)c1ccccc1 [tamoxifen]
[5]
  disease-free survival: 67%
  overall survival: 85%
[6]; at 10 years
  overall survival: 36%
[6]; median follow-up of 10 years, tamoxifen 30 mg daily for 1 year
  local-regional recurrence: 35%

## CC(=O)O[C@H]1C(=O)[C@@]2(C)[C@H]([C@H](OC(=O)c3ccccc3)[C@]3(O)C[C@H](OC(=O)[C@H](O)[C@@H](NC(=O)c4ccccc4)c4ccccc4)C(C)=C1C3(C)C)[C@]1(OC(C)=O)CO[C@@H]1C[C@@H]2O [TAXOL®, paclitaxel, reference compound]
[7]
  effect on growth of Lewis Lung tumors: neither PABA nor TAXOL® alone inhibited the growth
MCF-7 xenograft
  responses with either treatment modality alone: no responses

## Nc1ccc(C(=O)O)cc1 [PABA, p-amino-benzoic acid]
[7]
  effect on growth of Lewis Lung tumors: neither PABA nor TAXOL® alone inhibited the growth
β1 integrin subunit
  β1 integrin subunit expression: no change
CDC25A
  CDC25A protein expression: markedly increased
melanogenesis
  melanogenesis: inhibits melanogenesis
c-Myc; 4T1 cells
  c-Myc protein expression: significant up-regulation
c-Myc; G361 cells
  c-Myc protein expression: significant up-regulation
G361 melanoma cells
  cells in S-phase: 72%
[8]
  BRCA-2 gene expression: down-regulated
  H2A histone gene expression: down-regulated
  H2B histone gene expression: down-regulated
  P21^CIP1 gene expression: down-regulated
[9]
  in vitro proliferation of Lewis Lung carcinoma cells: inhibit the in vitro proliferation
actin; 4T1 and G361 cells, c-Myc blots
  actin levels: No change
actin; 4T1 breast cancer cells, PABA 100 μg/ml 7 days
  level of actin: Little change
[10]
  effect on 4T1 breast carcinoma tumor growth: Neither PABA alone nor a single fraction dose of ionizing radiation had any effect
[11]; after ingestion
  time of peak plasma concentration after ingestion: about ¾
[11]; in vivo
  mean half life: about 0.5 hours
4T1 breast cancer cells
  cells in S-phase: 40%
BRCA-2
  BRCA-2 protein expression: decreased
[12]
  increase in ROS compared to untreated cells: 3 fold
P21^CIP1
  levels of P21^CIP1: significantly reduced
CDC25A mRNA; 4T1 breast carcinoma cells
  increase in levels of CDC25A mRNA compared to untreated controls: about 2 fold
CDC25A mRNA; B16F10 melanoma cells
  increase in levels of CDC25A mRNA compared to untreated controls: about 2 fold
[2]; PABA 500 μg/mouse daily i.p., radiation 9.0 Gy, 28 days (FIG. 4)
  reduction of mean tumor volume compared to untreated control mice: about 26%
